Results from ChEMBL document CHEMBL1201862, “PubChem BioAssay data set” (2004).
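Cells were grown in 96-well plates and exposed to each compound for 48 hours at five concentrations; endpoints were interpolated linearly between bracketing concentrations, or set to the highest concentration if not reached. GI50: concentration for 50% inhibition of growth.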 Calls of active or inactive are those of the source. Rule as the data show it: active = GI50 up to about 1.1 µM and inactive = higher.

Columns and labels:
Experiment in all cases: NCI tumour cell line growth inhibition, 48 h
[1] = system: BT-549
[2] = system: T47D
[3] = system: DMS-273
[4] = system: DLD-1
[5] = system: LXFL 529
[6] = system: M19-MEL
[7] = system: XF498
[8] = system: RXF 631
[9] = system: HOP-18

Row | SMILES | GI50 [1] | GI50 [2] | also measured
1 | COc1ccc(CCCCNCc2cccc(CNCCCCc3ccc(OC)cc3)c2)cc1 | 1.81 µM (inactive) | 2.06 µM (inactive) | 
2 | O=C(O)CC1NC(/C(=C/c2ccccc2)NC(=O)c2ccccc2)OC1=O (stereo unspecified) | 19.9 µM (inactive) | > 100 µM (inactive) | 
3 | C=C[C@@]1(O)CCCC[C@@H]1CC(Sc1ccccc1)Sc1ccccc1 |  | 11.1 µM (inactive) | 
4 | CC1CCCC(C(O)CC2CC(=O)NC(=O)C2)C1O (stereo unspecified) | > 100 µM (inactive) | > 100 µM (inactive) | 
5 | O=c1oc2ccccc2cc1-c1nnc(-c2ccccc2)s1 | > 68.7 µM (inactive) |  | 
6 | CN(C)C(=S)/N=c1\ss/c(=N\C(=S)N(C)C)n1-c1cccc(Cl)c1 |  |  | GI50 [3]: > 100 µM (inactive)
7 | Cn1cc2ccccc2c1-c1nc(F)nc(F)n1 |  |  | GI50 [4]: > 100 µM (inactive); GI50 [5]: > 100 µM (inactive); GI50 [3]: > 100 µM (inactive); GI50 [6]: > 100 µM (inactive); GI50 [7]: 23.9 µM (inactive)
8 | CC1CCCN(CC(O)CN2CCCc3ccccc32)C1 (stereo unspecified) | > 100 µM (inactive) | > 100 µM (inactive) | 
9 | Cn1c(=O)c2c(nc(NCCCCl)n2CC(=O)NCCCCl)n(C)c1=O | > 100 µM (inactive) | > 100 µM (inactive) | 
10 | COc1ccccc1NC(=O)C1=C(C)NC(C)=C(C(=O)Nc2ccccc2OC)C1c1cccc2c1OCO2 |  |  | GI50 [4]: > 100 µM (inactive); GI50 [8]: > 100 µM (inactive); GI50 [5]: 69.2 µM (inactive); GI50 [9]: > 100 µM (inactive); GI50 [3]: > 100 µM (inactive); GI50 [6]: > 100 µM (inactive)
11 | O/N=C(\CC(O)(C(F)(F)F)C(F)(F)F)c1cccs1 | > 10 µM (inactive) | > 10 µM (inactive) | 
12 | CC(=O)OCC1OC(n2ncc(=O)[nH]c2=O)C(OC(C)=O)C1OC(C)=O (stereo unspecified) |  | > 100 µM (inactive) | 
13 | COC(=O)C1=C(C(=O)OC)C(OO)(c2ccccc2)OC1=O (stereo unspecified) | > 100 µM (inactive) | > 100 µM (inactive) | 
14 | O=C1NC(N2CCCC(CO)C2)=N/C1=C\c1cccs1 (stereo unspecified) | > 100 µM (inactive) | > 100 µM (inactive) | 
15 | Cn1c(=O)n2n(c1=O)C([S+]([O-])c1ccccc1)C2 (stereo unspecified) | > 100 µM (inactive) |  | 
16 | COc1ccc2c(c1)CCCC1C3=NCCC3(C)CSC21 (stereo unspecified) |  |  | GI50 [5]: 58.5 µM (inactive); GI50 [9]: 80.4 µM (inactive); GI50 [3]: 36.6 µM (inactive); GI50 [6]: 72.1 µM (inactive); GI50 [7]: > 100 µM (inactive)
17 | CC(=O)/C(=C/NC(=S)Nc1ccccc1)C(=O)Nc1ccccc1C |  | 52.4 µM (inactive) | 
18 | CC1OC(OC2C(O[C@H]3CC[C@@]4(C)[C@@H](CC[C@@H]5[C@@H]4CC[C@]4(C)[C@@H]6[C@H](C[C@@H]54)O[C@]4(CC[C@@H](C)CO4)[C@H]6C)C3)OC(CO)C(OC3OC(CO)C(O)C(OC4OCC(O)C(O)C4O)C3OC3OCC(O)C(O)C3O)C2O)C(O)C(O)C1O (stereo partly specified) | 1.08 µM (active) | 1.8 µM (inactive) | 
19 | CCOC(=O)c1c(N2CCCC2)[nH]c(=O)c(C(c2ccc(N(C)C)cc2)c2c(O)c(C(=O)OCC)c(N3CCCC3)[nH]c2=O)c1O | 30.4 µM (inactive) | > 100 µM (inactive) | 

Row | SMILES | GI50 [1] | GI50 [2] | also measured
20 | CCC1(Br)C(=O)NC(=O)N(C2CC(O)C(CO)O2)C1N=[N+]=[N-] (stereo unspecified) |  |  | GI50 [4]: > 100 µM (inactive); GI50 [5]: > 100 µM (inactive); GI50 [3]: > 100 µM (inactive); GI50 [6]: > 100 µM (inactive); GI50 [7]: > 100 µM (inactive)
21 | COc1ccc(C2(O)C(S(=O)(=O)c3ccc(C)cc3)=Cc3ccc(OC)cc32)cc1 (stereo unspecified) |  | 69.5 µM (inactive) | 
22 | NC(=O)C(=CNC(=S)Nc1cccc(C(F)(F)F)c1)C(N)=O |  | > 100 µM (inactive) | 
23 | COc1c2c(cc3c1C1(O)Cc4ccc5c(c4C[N+]1(C)CC3)OCO5)OCO2 (stereo unspecified) | > 100 µM (inactive) | > 100 µM (inactive) | 
24 | OCC1C(OCc2ccccc2)C(OCc2ccccc2)C(OCc2ccccc2)CN1Cc1ccccc1 (stereo unspecified) |  | 22.6 µM (inactive) | 
25 | COc1ccc(/N=N/c2ccc3oc(=O)c(C(=O)Nc4ccc(OC)cc4)cc3c2)cc1 | 4.93 µM (inactive) | 4.23 µM (inactive) | 
26 | CC1=CC2C(C=C1)S(=O)(=O)N1CC21c1ccccc1 (stereo unspecified) |  |  | GI50 [4]: > 100 µM (inactive); GI50 [5]: > 100 µM (inactive); GI50 [9]: 54 µM (inactive); GI50 [3]: > 100 µM (inactive); GI50 [6]: > 100 µM (inactive)
27 | CCOC(=O)CCCN | > 100 µM (inactive) | > 100 µM (inactive) | 
28 | Sc1nnc(C23CC4CC(CC(C4)C2)C3)n1-c1ccc(Cl)cc1 | 12.3 µM (inactive) | 17.5 µM (inactive) | 
29 | NC(=O)c1cn(C2OC(CO)C(O)C2O)c2nc[n+]([O-])c(N)c12 (stereo unspecified) | 0.592 µM (active) | 0.103 µM (active) | 
30 | O=c1[nH]cnc2c(C3OC(CO)C(O)C3O)c[nH]c12 (stereo unspecified) | > 100 µM (inactive) | > 100 µM (inactive) | 
31 | COC1CC(O[C@H]2CC[C@@]3(C)C(=CCC4(O)C3CCC35C(=O)OC6(C)O[C@@]43CCC65)C2)OC(C)C1O (stereo partly specified) |  |  | GI50 [4]: > 100 µM (inactive); GI50 [5]: > 100 µM (inactive); GI50 [9]: > 100 µM (inactive); GI50 [3]: > 100 µM (inactive); GI50 [6]: > 100 µM (inactive); GI50 [7]: > 100 µM (inactive)
32 | C/N=C(\S)N/N=C/C(C)=N/N/C(S)=N/C |  |  | GI50 [9]: > 100 µM (inactive); GI50 [3]: > 100 µM (inactive); GI50 [6]: > 100 µM (inactive)
33 | CCc1cccc2c3c([nH]c12)-c1ccccc1NC(=O)C3 | > 100 µM (inactive) | 3.66 µM (inactive) | 
34 | C=CCOn1c(C=C)nc2c(C)cccc21 | 5.16 µM (inactive) | 1.99 µM (inactive) | 
35 | [O-][n+]1ccc(NO)c2ccccc21 | 0.689 µM (active) | 1.67 µM (inactive) | 
36 | Cc1ccc2c(O)cc(-c3ccc4ccccc4c3)nc2n1 | 27.4 µM (inactive) | 7 µM (inactive) | 
37 | CN(C)c1ccc2cc3ccc(N(C)C)cc3nc2c1 [ACRIDINE ORANGE] | 6.78 µM (inactive) | 12.1 µM (inactive) | 
